Where two headings read alike, the source gives them in different places.
What was measured:
[1] = In vitro plasma protein binding (ultrafiltration, Centrifree); type: in vitro ADME; settings: human, pooled human blood plasma, 30 min, 37 °C, ultrafiltration
Description: (§1) PPB was investigated according to a previous study with minor modifications (Kroesen et al. [2025]). Fresh and pooled human blood plasma (450 µL) was spiked with 50 µL of a 5 µM methanolic solution of 4MeO-NE-BP, 4MeO-αP-BP, 4MeO-αP-VP, 4MeS-NE-BP, 4MeS-αP-BP, or 4MeS-αMor-PrP. The mixture was incubated for 30 min at 37 °C and with gentle shaking at 200 rpm. […] The Centrifree devices were centrifuged for 35 min at 1600 × g to obtain 100 µL of the ultrafiltrate (UF). […] Experiments were performed in quadruplicate. Fraction unbound (fu) and PPB were determined by comparing the area ratios of the compound and trimipramine-d3 as an internal standard in the UF and GA using the following equations:1 fu=peak area ratiocompoundUF/ISUF/peak area ratiocompoundGA/ISGA 2 PPB[\%]=1-fu∗100.

[2] = tested on: plasma proteins (pooled human blood plasma); test: as above; type: in vitro ADME; settings: for PPB, %: 30 min, 37 °C, ultrafiltration
Description: as §1

[3] = tested on: pooled human liver S9 fraction (pHLS9) and HepaRG cells; test: In vitro metabolism by pHLS9 and HepaRG cells (LC-HRMS/MS metabolite identification); type: in vitro ADME; settings: 25 µM substrate
[4] = tested on: dopamine and serotonin transporters; parameters: method as in Wojcieszak et al. [2021]; settings: ref Wojcieszak et al. [2021]; cited from earlier work
[5] = tested on: HepaRG cells; test: Incubations using HepaRG cells; settings: 25 µM parent, 24 h
Description: Cell incubations were performed in a monolayer assay (Kroesen et al. [2025]) and in accordance with the manufacturer’s instructions.
All incubations were performed in triplicate, with each well containing 0.5% (v/v) DMSO. Following incubation, 50 µL of the medium supernatant was transferred to a new reaction tube and precipitated with 30 µL of acetonitrile cooled to −20 °C, containing 2.5 µM trimipramine-d3 as an internal standard. […] The mixture was vortexed and centrifuged for 2 min at 18,407 × g. A volume of 70 µL of the supernatant was transferred into an autosampler vial and 5 µL was injected onto the LC–HRMS/MS system.
HepaRG cells were thawed and resuspended in 13.5 mL (~ 740,000 cells/mL) thaw
and seed medium at 37 °C. Thaw and seed medium consisted of Williams E medium,
100 U/mL penicillin, 100 µg/mL streptomycin, GlutaMAX, and HPRG670 supplement.
Cells were handled under sterile conditions using a laminar flow bench class II (Thermo
Scientific, TF, Schwerte, Germany). Aliquots of 100 µL cell suspension were seeded
on collagen-coated 96-well plates (~ 74,000 cells/well). Evaporation was minimized by
filling the outer wells with 100 µL thaw and seed medium. Cells were preincubated for
4 h in an incubator (Binder, Tuttlingen, Germany) at 37 °C, 95 % air humidity, and 5 %
CO2. After preincubation, 50 µL of the thaw and seed medium was replaced with 50 µL
solution of each cathinone (25 µM) in thaw and seed medium, followed by an
incubation for 24 h at 37 °C, 95 % air humidity, and 5 % CO2 atmosphere.
A Thermo Fisher ( TF, Dreieich, Germany) Dionex UltiMate 3000 RS pump consisting
of a degasser, a quaternary pump, and an autosampler, coupled to a TF Q Exactive
Plus system equipped with a heated electrospray ionization (HESI)-II source were
used. A mass calibration was done according to the manufacturer's recommendations
using external mass calibration prior to analysis. Gradient elution was performed on a
TF Accucore PhenylHexyl column (100 mm x 2.1 mm, 2.6 μm) with a 2 mM aqueous
ammonium formate solution containing 0.1 % (v/v) formic acid (pH 3, eluent A) and 2
mM ammonium formate solution in acetonitrile/methanol (50:50, v/v) containing 0.1 %
(v/v) formic acid, and 1 % (v/v) water (eluent B). The gradient was stepped as follows:
hold 99 % A. Initial flow rate from 0–9.5 min was 500 μL/min and final flow rate was
800 μL/min from 9.5–11.5 min. Mass spectrometry was performed using full scan data
and a subsequent data-dependent acquisition (DDA) with priority to mass-to-charge
ratios (m/z) of parent compounds and their expected metabolites. The inclusion list
contained m/z values of likely formed metabolites such as O- or S-desmethyl, hydroxy,
and oxo reduction metabolites (phase I) as well as sulfates, glucuronides (phase II),
and combinations thereof.
TF Xcalibur Qual Browser software […]

[6] = tested on: pooled human liver S9 fraction (pHLS9); test: Incubations using pooled human liver S9 fraction; settings: 25 µM parent, 60 and 360 min
Description: In short, 25 μg/mL alamethicin (UGT reaction mix B), pHLS9 (2 mg microsomal protein/mL), 2.5 mM isocitrate, 0.8 U/mL isocitrate dehydrogenase, 100 U/mL superoxide dismutase, 0.6 mM NADP^+, and 2.5 mM Mg^2+ were preincubated for 10 min at 37 °C. Then, 2.5 mM UDP-glucuronic acid (UGT reaction mix A), 40 µM PAPS, 1.2 mM SAM, 1 mM DTT, and 10 mM GSH were added. The reaction was started by adding the substrate (25 µM each, final), resulting in a final incubation volume of 150 µL. MDMA or quetiapine (25 µM and 250 µM final concentrations) was incubated as positive controls. […] Incubations were performed in triplicate and organic solvent in the incubation mixture was below 1% (Chauret et al. [1998]). After an incubation time of 60 and 360 min, aliquots (50 µL) were transferred to a new reaction tube. The reaction was stopped with 30 µL acetonitrile (−20 °C) containing 2.5 µM trimipramine-d3 as an internal standard. Samples were vortexed, stored at −20 °C for 30 min, and centrifuged for 2 min at 18,407 × g. 70 µL of the supernatant were transferred to autosampler vials and 5 µL was injected onto the LC–HRMS/MS system.

[7] = biological target: T1, CYP1A2 (Homo sapiens, UniProt P05177); test: Monooxygenases activity screening, CYP1A2; type: in vitro ADME; parameters: key: +, detected; -, not detected; settings: substrate 4MeS-NE-BP 25 µM, 30 min, 37 °C; Table S3.4
T1 construct: purchased Discovery Life Sciences (Huntsville, LA, USA); host or cells: baculovirus-infected insect cells (microsomes, Supersomes)
T1 sequence (P05177 1-516): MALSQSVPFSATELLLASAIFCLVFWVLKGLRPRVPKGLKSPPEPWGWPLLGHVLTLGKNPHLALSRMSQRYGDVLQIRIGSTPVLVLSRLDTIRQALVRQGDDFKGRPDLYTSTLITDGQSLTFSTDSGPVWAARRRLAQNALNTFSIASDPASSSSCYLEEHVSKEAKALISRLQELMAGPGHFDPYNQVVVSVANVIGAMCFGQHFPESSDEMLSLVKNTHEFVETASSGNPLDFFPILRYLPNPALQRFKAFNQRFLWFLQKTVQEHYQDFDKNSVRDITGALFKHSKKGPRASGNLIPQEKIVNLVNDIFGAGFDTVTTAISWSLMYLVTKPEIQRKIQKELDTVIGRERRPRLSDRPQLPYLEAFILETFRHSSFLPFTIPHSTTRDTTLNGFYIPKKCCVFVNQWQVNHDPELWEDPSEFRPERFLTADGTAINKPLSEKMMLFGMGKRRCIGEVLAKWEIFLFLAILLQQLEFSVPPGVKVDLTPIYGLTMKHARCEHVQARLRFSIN
Description: (§2) For incubations with CYP2A6 or CYP2C9, phosphate buffer was replaced with 90 mM Tris buffer, according to the manufacturer’s guideline. […] All incubations were done in duplicate and concentrations were fixed. Verapamil (25 µM) was incubated as a positive control.

[8] = biological target: T2, CYP2A6 (Homo sapiens, UniProt P11509); test: Monooxygenases activity screening, CYP2A6; type: in vitro ADME; parameters: key: +, detected; -, not detected; settings: substrate 4MeS-NE-BP 25 µM, 30 min, 37 °C; Table S3.4
T2 construct: purchased Discovery Life Sciences (Huntsville, LA, USA); host or cells: baculovirus-infected insect cells (microsomes, Supersomes)
T2 sequence (P11509 1-494): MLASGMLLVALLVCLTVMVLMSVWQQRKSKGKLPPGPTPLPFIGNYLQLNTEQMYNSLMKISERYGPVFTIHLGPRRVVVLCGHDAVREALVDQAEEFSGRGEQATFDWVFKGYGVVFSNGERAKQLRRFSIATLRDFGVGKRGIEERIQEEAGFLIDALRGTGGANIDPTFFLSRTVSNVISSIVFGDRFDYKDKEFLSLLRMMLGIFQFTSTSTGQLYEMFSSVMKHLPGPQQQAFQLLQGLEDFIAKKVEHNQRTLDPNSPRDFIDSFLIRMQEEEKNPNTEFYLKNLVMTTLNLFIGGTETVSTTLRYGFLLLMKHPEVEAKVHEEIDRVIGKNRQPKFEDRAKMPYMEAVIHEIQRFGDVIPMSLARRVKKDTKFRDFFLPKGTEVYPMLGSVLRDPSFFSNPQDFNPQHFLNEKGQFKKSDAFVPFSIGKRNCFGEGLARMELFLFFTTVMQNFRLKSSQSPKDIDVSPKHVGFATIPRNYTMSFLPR
Description: as §2

[9] = biological target: T3, CYP2B6 (Homo sapiens, UniProt P20813); test: Monooxygenases activity screening, CYP2B6; type: in vitro ADME; parameters: key: +, detected; -, not detected; settings: substrate 4MeS-NE-BP 25 µM, 30 min, 37 °C; Table S3.4
T3 construct: purchased Discovery Life Sciences (Huntsville, LA, USA); host or cells: baculovirus-infected insect cells (microsomes, Supersomes)
T3 sequence (P20813 1-491): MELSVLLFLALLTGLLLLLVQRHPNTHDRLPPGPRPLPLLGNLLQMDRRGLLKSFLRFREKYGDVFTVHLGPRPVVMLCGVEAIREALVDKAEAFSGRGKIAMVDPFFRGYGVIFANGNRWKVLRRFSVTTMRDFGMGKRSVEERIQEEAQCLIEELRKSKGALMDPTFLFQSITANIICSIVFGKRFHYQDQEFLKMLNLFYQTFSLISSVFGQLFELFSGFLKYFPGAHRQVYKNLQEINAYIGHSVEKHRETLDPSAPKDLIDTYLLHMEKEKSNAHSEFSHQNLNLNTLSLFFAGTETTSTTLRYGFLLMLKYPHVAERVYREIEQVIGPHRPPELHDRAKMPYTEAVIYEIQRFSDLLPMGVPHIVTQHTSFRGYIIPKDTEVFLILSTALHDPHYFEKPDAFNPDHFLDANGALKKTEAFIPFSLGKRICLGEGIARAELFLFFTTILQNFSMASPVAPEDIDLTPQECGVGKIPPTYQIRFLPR
Description: as §2

[10] = biological target: T4, CYP2C8 (Homo sapiens, UniProt P10632); test: Monooxygenases activity screening, CYP2C8; type: in vitro ADME; parameters: key: +, detected; -, not detected; settings: substrate 4MeS-NE-BP 25 µM, 30 min, 37 °C; Table S3.4
T4 construct: purchased Discovery Life Sciences (Huntsville, LA, USA); host or cells: baculovirus-infected insect cells (microsomes, Supersomes)
T4 sequence (P10632 1-490): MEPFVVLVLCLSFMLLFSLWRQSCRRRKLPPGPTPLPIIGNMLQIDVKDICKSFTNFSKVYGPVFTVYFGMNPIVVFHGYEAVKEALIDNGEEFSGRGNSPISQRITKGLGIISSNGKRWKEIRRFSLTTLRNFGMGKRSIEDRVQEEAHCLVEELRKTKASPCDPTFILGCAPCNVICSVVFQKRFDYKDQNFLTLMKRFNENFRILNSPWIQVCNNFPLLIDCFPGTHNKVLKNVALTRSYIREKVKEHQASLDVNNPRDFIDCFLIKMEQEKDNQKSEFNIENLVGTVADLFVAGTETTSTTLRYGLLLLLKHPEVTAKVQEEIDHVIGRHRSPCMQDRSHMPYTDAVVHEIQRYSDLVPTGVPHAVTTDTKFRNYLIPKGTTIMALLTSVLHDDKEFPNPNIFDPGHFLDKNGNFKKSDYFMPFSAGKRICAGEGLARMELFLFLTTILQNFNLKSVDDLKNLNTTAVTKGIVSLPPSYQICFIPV
Description: as §2

[11] = biological target: T5, CYP2C9 (Homo sapiens, UniProt P11712); test: Monooxygenases activity screening, CYP2C9; type: in vitro ADME; parameters: key: +, detected; -, not detected; settings: substrate 4MeS-NE-BP 25 µM, 30 min, 37 °C; Table S3.4
T5 construct: purchased Discovery Life Sciences (Huntsville, LA, USA); host or cells: baculovirus-infected insect cells (microsomes, Supersomes)
T5 sequence (P11712 whole entry): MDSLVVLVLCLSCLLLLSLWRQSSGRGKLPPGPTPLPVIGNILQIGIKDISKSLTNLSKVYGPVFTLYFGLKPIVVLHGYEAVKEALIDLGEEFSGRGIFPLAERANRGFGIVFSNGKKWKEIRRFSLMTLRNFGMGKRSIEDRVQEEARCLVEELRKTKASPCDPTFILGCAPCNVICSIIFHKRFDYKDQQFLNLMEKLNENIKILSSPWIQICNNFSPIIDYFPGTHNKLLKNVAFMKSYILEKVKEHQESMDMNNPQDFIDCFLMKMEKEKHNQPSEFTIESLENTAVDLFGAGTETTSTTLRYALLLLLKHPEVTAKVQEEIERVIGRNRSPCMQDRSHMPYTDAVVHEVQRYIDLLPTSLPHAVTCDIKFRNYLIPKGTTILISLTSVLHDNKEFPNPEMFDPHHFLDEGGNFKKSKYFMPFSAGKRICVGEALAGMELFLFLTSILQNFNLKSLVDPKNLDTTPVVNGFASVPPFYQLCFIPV
Description: as §2

[12] = biological target: T6, CYP2C19 (Homo sapiens, UniProt P33261); test: Monooxygenases activity screening, CYP2C19; type: in vitro ADME; parameters: key: +, detected; -, not detected; settings: substrate 4MeS-NE-BP 25 µM, 30 min, 37 °C; Table S3.4
T6 construct: purchased Discovery Life Sciences (Huntsville, LA, USA); host or cells: baculovirus-infected insect cells (microsomes, Supersomes)
T6 sequence (P33261 whole entry): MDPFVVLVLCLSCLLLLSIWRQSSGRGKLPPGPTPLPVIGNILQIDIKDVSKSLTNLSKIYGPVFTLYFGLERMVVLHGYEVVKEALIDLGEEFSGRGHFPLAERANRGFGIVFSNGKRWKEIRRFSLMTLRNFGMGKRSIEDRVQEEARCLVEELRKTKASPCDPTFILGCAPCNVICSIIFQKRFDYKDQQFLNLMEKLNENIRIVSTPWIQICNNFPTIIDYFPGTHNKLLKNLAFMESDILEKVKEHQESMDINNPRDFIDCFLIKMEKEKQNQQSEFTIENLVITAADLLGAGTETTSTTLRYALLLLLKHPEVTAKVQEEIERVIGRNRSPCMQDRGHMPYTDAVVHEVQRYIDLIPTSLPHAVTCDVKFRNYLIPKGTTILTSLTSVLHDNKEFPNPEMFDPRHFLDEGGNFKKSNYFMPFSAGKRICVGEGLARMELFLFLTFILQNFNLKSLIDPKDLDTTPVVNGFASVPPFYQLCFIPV
Description: as §2

[13] = biological target: T7, CYP2D6 (Homo sapiens, UniProt P10635); test: Monooxygenases activity screening, CYP2D6; type: in vitro ADME; parameters: key to one-step metabolite detected in CYP2D6 incubation: +, detected; -, not detected; settings: substrate 4MeS-NE-BP 25 µM, 30 min, 37 °C; Table S3.4
T7 construct: purchased Discovery Life Sciences (Huntsville, LA, USA); host or cells: baculovirus-infected insect cells (microsomes, Supersomes)
T7 sequence (P10635 whole entry): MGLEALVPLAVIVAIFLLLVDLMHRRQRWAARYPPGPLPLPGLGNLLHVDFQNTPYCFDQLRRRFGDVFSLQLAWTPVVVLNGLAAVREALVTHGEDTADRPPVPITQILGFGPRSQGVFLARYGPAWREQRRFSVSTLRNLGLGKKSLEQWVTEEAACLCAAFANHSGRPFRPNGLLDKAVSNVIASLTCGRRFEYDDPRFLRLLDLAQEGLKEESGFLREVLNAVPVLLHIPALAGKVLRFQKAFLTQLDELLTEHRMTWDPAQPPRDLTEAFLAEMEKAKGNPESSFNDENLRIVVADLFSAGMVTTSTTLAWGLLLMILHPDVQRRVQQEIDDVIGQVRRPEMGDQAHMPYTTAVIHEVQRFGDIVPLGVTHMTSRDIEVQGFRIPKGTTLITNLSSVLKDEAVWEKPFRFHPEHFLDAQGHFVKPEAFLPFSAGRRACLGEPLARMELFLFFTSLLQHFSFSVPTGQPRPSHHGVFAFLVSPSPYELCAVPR
Description: as §2

[14] = biological target: T8, CYP2E1 (Homo sapiens, UniProt P05181); test: Monooxygenases activity screening, CYP2E1; type: in vitro ADME; parameters: key: +, detected; -, not detected; settings: substrate 4MeS-NE-BP 25 µM, 30 min, 37 °C; Table S3.4
T8 construct: purchased Discovery Life Sciences (Huntsville, LA, USA); host or cells: baculovirus-infected insect cells (microsomes, Supersomes)
T8 sequence (P05181 whole entry): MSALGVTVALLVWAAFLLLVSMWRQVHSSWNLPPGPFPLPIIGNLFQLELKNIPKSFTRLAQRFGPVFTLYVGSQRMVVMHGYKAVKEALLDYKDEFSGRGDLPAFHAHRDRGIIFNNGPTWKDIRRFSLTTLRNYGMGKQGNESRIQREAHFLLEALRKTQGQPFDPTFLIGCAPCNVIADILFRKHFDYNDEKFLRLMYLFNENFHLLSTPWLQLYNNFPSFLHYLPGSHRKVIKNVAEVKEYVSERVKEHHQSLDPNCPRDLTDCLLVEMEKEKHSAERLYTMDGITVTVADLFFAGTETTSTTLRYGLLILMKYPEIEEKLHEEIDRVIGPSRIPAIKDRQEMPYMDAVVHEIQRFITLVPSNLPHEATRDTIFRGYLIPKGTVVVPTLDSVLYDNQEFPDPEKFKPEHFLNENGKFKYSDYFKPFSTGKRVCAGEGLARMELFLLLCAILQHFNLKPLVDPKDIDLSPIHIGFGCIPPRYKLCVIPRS
Description: as §2

[15] = biological target: T9, CYP3A4 (Homo sapiens, UniProt P08684); test: Monooxygenases activity screening, CYP3A4; type: in vitro ADME; parameters: key: +, detected; -, not detected; settings: substrate 4MeS-NE-BP 25 µM, 30 min, 37 °C; Table S3.4
T9 construct: purchased Discovery Life Sciences (Huntsville, LA, USA); host or cells: baculovirus-infected insect cells (microsomes, Supersomes)
T9 sequence (P08684 whole entry): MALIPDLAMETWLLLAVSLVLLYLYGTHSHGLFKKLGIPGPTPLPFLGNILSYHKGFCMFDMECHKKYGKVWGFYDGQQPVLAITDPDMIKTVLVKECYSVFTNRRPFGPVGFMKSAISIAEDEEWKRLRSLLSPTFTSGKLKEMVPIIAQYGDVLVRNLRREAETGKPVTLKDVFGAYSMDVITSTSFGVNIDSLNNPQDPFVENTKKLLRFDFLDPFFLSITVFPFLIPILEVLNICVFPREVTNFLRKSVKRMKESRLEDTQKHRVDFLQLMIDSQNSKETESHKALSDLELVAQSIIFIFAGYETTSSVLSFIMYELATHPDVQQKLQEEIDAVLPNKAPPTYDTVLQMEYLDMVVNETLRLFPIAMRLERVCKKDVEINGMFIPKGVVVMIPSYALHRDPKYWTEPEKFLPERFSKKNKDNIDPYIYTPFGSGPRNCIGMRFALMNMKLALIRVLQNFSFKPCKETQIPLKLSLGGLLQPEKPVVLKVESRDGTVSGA
Description: as §2

[16] = biological target: T10, CYP3A5 (Homo sapiens, UniProt P20815); test: Monooxygenases activity screening, CYP3A5; type: in vitro ADME; parameters: key: +, detected; -, not detected; settings: substrate 4MeS-NE-BP 25 µM, 30 min, 37 °C; Table S3.4
T10 construct: purchased Discovery Life Sciences (Huntsville, LA, USA); host or cells: baculovirus-infected insect cells (microsomes, Supersomes)
T10 sequence (P20815 whole entry): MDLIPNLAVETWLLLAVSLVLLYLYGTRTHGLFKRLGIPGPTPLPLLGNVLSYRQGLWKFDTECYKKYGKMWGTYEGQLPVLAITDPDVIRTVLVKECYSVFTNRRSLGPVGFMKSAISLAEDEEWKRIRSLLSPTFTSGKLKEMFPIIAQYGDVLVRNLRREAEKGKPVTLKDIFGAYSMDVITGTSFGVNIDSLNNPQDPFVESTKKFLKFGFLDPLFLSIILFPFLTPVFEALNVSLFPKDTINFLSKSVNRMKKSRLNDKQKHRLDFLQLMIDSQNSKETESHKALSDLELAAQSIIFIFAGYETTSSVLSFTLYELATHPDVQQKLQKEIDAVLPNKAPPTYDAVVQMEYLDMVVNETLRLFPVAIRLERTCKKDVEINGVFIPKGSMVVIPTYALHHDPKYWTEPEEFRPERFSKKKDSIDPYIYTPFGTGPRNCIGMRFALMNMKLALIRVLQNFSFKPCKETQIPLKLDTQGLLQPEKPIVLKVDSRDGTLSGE
Description: as §2

[17] = biological target: T11, flavin-containing monooxygenase 3 (FMO3) (Homo sapiens, UniProt P31513); test: Monooxygenases activity screening, FMO3; type: in vitro ADME; parameters: key: +, detected; -, not detected; settings: substrate 4MeS-NE-BP 25 µM, 30 min, 37 °C; Table S3.4
T11 construct: purchased Discovery Life Sciences (Huntsville, LA, USA); host or cells: baculovirus-infected insect cells (microsomes, Supersomes)
T11 sequence (P31513 1-532): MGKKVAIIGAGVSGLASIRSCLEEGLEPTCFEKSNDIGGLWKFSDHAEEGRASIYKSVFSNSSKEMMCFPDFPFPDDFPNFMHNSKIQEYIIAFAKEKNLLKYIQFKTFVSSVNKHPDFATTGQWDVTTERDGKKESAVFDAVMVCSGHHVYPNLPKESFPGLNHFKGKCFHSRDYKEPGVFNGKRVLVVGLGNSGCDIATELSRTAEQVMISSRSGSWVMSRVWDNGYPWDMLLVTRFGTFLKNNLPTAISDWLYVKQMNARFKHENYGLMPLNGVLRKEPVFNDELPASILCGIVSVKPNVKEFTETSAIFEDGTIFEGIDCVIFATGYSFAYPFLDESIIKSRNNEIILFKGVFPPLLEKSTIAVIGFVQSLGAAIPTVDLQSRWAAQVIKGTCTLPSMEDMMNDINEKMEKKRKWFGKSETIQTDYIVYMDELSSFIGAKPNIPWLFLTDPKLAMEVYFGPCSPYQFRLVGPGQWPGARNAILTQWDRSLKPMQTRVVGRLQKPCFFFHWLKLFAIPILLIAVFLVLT
Description: as §2

[18] = read-out: fu (unbound fraction)

CCCC(C(=O)c1ccc(OC)cc1)N1CCCC1 (stereo not drawn) [Compound 4MeO-αP-VP, 4’-methoxy-α-pyrrolidinovalerophenone]
fraction unbound at 30 min, 0.5 µM [1, 18]: 0.39
Plasma protein binding, class in words [2]: moderate
PPB, % [2]: 61%
Phase II metabolism [3]: O-sulfation (MO3.9) and O-glucuronidation (MO3.10) after O-demethylation
metabolic reactions (metabolite IDs) identified [3]: hydroxylation (MO3.1, MO3.3), O-demethylation (MO3.2), N-oxidation (MO3.4), lactam formation (MO3.5), O-demethylation + aromatic hydroxylation (MO3.6), hydroxylation + N-oxidation (MO3.7), and O-demethylation + dihydroxylation at the pyrrolidine ring (MO3.8)
number of metabolites tentatively identified [3]: 10
monoamine uptake inhibition, relative potency at transporters [4]: greater potency in dopamine than serotonin transporters

CCCC(C(=O)c1ccc(OC2OC(C(=O)O)C(O)C(O)C2O)cc1)N1CCCC1 (centres unmarked) [MO3.10]
metabolite detection in HepaRG incubations [5]: observed in HepaRG incubations
metabolite detection in pHLS9 [6]: could not be detected

CCC(C(=O)c1ccc(SC)cc1)N(O)CC (centres unmarked) [MT1.4]
one-step metabolite detected in CYP1A2 incubation [7]: +
one-step metabolite detected in CYP2A6 incubation [8]: -
one-step metabolite detected in CYP2B6 incubation [9]: -
one-step metabolite detected in CYP2C8 incubation [10]: -
one-step metabolite detected in CYP2C9 incubation [11]: -
one-step metabolite detected in CYP2C19 incubation [12]: -
one-step metabolite detected in CYP2D6 incubation [13]: +
one-step metabolite detected in CYP2E1 incubation [14]: -
one-step metabolite detected in CYP3A4 incubation [15]: +
one-step metabolite detected in CYP3A5 incubation [16]: +
one-step metabolite detected in FMO3 incubation [17]: +
metabolite detection in HepaRG incubations [5]: only detected in HepaRG incubations

CCC(N)C(=O)c1ccc(SC)cc1 (centres unmarked) [MT2.5]
metabolite detection in HepaRG incubations [5]: only detected in HepaRG incubations

CCNC(CC)C(=O)c1ccc(OC)cc1 (centres unmarked) [Compound 4MeO-NE-BP, 4’-methoxy-N-ethylbutyrophenone]
fraction unbound at 30 min, 0.5 µM ([1]; read-out: PPB, % (converted)): > 0.5
fraction unbound at 30 min, 0.5 µM [1, 18]: 0.61
Plasma protein binding, class in words [2]: low
PPB, % [2]: 39%
metabolic reactions (metabolite IDs) identified [3]: O-demethylation (MO1.1), hydroxylation (MO1.2), N-dealkylation (MO1.3), hydroxylamine formation (MO1.4), and O-demethylation + sulfation (MO1.5)
number of metabolites tentatively identified [3]: 5

CCCC(C(=O)c1ccc(OS(=O)(=O)O)cc1)N1CCCC1 (centres unmarked) [MO3.9]
metabolite detection in HepaRG incubations [5]: observed in HepaRG incubations
